This passage reports AC50 results from PubChem BioAssay AID493102 (Broad Institute, 2011).

Each structure is given as a SMILES string.

This experiment has as its system SK-MEL-5 TRPM1-promoter luciferase reporter, 24 h. The experiment in a line: TRPM1 promoter luciferase signal decrease, dose response, MITF inhibitor project, cell-based, SK-MEL-5, cherry-picked, set 4 (AID 493102).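 Also: actives lower the luciferase signal so the potency reflects inhibition of reporter expression.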
For the molecule `CC(=O)c1ccc(Sc2nnnn2-c2ccccc2)c([N+](=O)[O-])c1`, the AC50 (usually the concentration giving half of the maximal activity seen) is 7.82 µM.
To `CCOC(=O)COc1ccc2ccccc2c1/C=C/[N+](=O)[O-]` belongs 8.17 µM; to `BrC(=C\c1ccccc1)/C=N/n1cnnc1`, 7.26 µM.
Consider `CC(C)CC(=O)NC(c1cccs1)c1ccc2cccnc2c1O` (centres undefined), for which the AC50 is 3.71 µM.
Turning to `Cc1ccc(C)c(NC(=O)/C(C#N)=C/c2cn(CC(=O)NCc3ccco3)c3ccccc23)c1`, the AC50 was 6.56 µM.
Consider `Cc1ccc(Cn2c(=N)n(CC(=O)c3ccc([N+](=O)[O-])cc3)c3ccccc32)cc1`, for which the AC50 was 6.42 µM.
The figure for `O=C(N/N=C\c1cc(Br)ccc1O)c1ccc(S(=O)(=O)N2CCCCC2)cc1` is 1.78 µM; for `Cc1nc2ccccn2c1C(=O)/C=C/c1cccc([N+](=O)[O-])c1` it is 6.9 µM.
`Cc1ccc(C(O)(c2ccc(C)c(C)c2)C2CN3CCC2CC3)cc1C` (centres undefined): the half-maximal activity concentration (AC50) was 10.1 µM.
On to `O=C1NC(=O)N(Cc2ccccc2)C(=O)/C1=C/C=C/c1ccco1`, for which the AC50 was 4.85 µM.
With `Nc1ccc(-c2ncc(-c3ccccc3)o2)cc1`, the AC50 is 0.171 µM.
The figure for `O=C1c2ccccc2S(=O)(=O)N1Cc1nc2ccccc2s1` is 2.7 µM; for `O=C1C(Nc2ccccc2)=C(N2CCCCC2)C(=O)c2ccccc21` it is 6.67 µM.
The figure for `C/C(=N\NC(=O)C1COc2ccccc2O1)c1ccccn1` (centres undefined) is 4.49 µM.
To `O=C(/C=C\Nc1ccc2c(c1)OCO2)c1ccccn1` belongs 2.08 µM; to `CN(C)c1ccc(-n2cccc2/C=C/[N+](=O)[O-])cc1`, 10.2 µM.
In the case of `O=C(c1ccc(F)cc1)C(CN1CCOCC1)c1ccccc1` (centres undefined), the AC50 is 5.96 µM.
The figure for `O=C(N/N=C/c1cccc2cccnc12)c1ccccc1O` is 24.8 µM; for `COc1ccccc1OCC(=O)N/N=C/C=C/c1ccc([N+](=O)[O-])o1` it is 7.39 µM.
With `N#Cc1c(NC(=O)CSc2ncn[nH]2)sc2c1CCCC2`, the AC50 was 0.599 µM.
The figure for `COC(=O)CSC1=C(C#N)C(=O)NC(c2ccccc2)S1` (centres undefined) is 7.06 µM; for `O=C(Nc1cccc(S(=O)(=O)N2CCCCC2)c1)c1ccc([N+](=O)[O-])o1` it is 11.9 µM; for `CC1=C(CC(=O)c2ccccc2)C(=O)c2ccccc2C1=O` it is 7.15 µM.
For the molecule `O=C(Cc1ccccc1)NCC(=O)N/N=C/c1ccc([N+](=O)[O-])s1`, the AC50 is 16.1 µM.
In the case of `O=[N+]([O-])c1ccc(Sc2cc[n+]([O-])c3ccccc23)c([N+](=O)[O-])c1`, the AC50 was 5.92 µM.
The figure for `O=C(CCl)Nc1ccc(-c2ccccc2)cc1` is 7.3 µM.
The figure for `CCOc1ccc(-c2noc(CCC(=O)O)n2)cc1` is 2.61 µM; for `C/C(=C\c1ccc(N(C)C)cc1)[N+](=O)[O-]` it is 13.1 µM.
To `COC(=O)CCS(=O)(=O)c1nc(-c2ccccc2)cc(C(F)(F)F)n1` belongs 5.85 µM; to `O=C(CCl)N(c1ccccc1)C1CCS(=O)(=O)C1` (centres undefined), 9.35 µM.
With `N#CCc1ccc(NC(=O)/C=C/c2ccc([N+](=O)[O-])o2)cc1`, the AC50 is 4.97 µM.
`CS(=O)(=O)c1ccc(S(=O)CC(=O)OCc2ccccc2)c([N+](=O)[O-])c1` (centres undefined): the AC50 was 5.46 µM.
As to `O=C(Nc1ccc(S(=O)(=O)N2CCCCCC2)cc1)c1[nH]ncc1[N+](=O)[O-]`, the AC50 is 4.02 µM.
`N=c1n(CC(=O)c2ccc([N+](=O)[O-])cc2)c2ccccc2n1Cc1ccccc1Cl`: the AC50 is 4.03 µM.
To `COc1ccc(COC(=O)c2cc([N+](=O)[O-])ccc2N2CCOCC2)cc1F` belongs 0.023 µM.
To `CC(C)(C)C(=O)Cn1ncc(Br)c(Br)c1=O` belongs 3.92 µM.
To `COC(=O)C1=C(C)N(Cc2ccccc2)C(=NCCc2cccnc2)N[C@H]1c1ccc(Br)cc1` belongs 17.8 µM; to `O=C(Nc1nc(-c2ccccn2)cs1)c1ccc(F)c(S(=O)(=O)N2CCOCC2)c1`, 5.7 µM; to `COc1cccc(-c2nnc3n2N=C(C(C)(C)C)CS3)c1`, 4.82 µM.
Take `Cc1ccc(C(=O)c2cccc(N)c2)cc1C`: the AC50 is 3.62 µM.
Turning to `CC(C)(C)c1ccc(OCCCNCc2ccccc2)cc1`, the AC50 was 18.4 µM.
To `CCN(CC)CCNC(=O)c1c(C)n(-c2ccccc2)c2cc(Br)c(OC)cc12` belongs 12.9 µM; to `O=C1NC(=O)C(=Cc2ccc(-c3ccc(Cl)cc3)o2)C(=O)N1`, 9.2 µM.
To `Cc1ccc2c(c1)Oc1ccc(NC(=O)CCl)cc1C(=O)N2` belongs 10.1 µM; to `CCCN1CCC(NCc2cn(C)nc2-c2ccc(Oc3ccccc3)cc2)CC1`, 8.35 µM.
To `CC1C/C(=C\c2cccnc2)C(=O)/C(=C/c2cccnc2)C1` (centres undefined) belongs 2.66 µM; to `CC(=O)Nc1ccc(S(=O)(=O)N2CCn3cccc3C2C)cc1` (centres undefined), 28.7 µM.
In the case of `CC1CN(C(=O)CCC(=O)NCCCN2CCC(Cc3ccccc3)CC2)c2cc(Cl)ccc2O1` (centres undefined), the AC50 is 16.2 µM.
The figure for `CN(C)c1nc(-c2ccccn2)nnc1-c1ccccc1` is 6.17 µM.
To `Nc1ccc(Oc2cccc(Oc3ccc(N)cc3)c2)cc1` belongs 1.1 µM.
The figure for `COc1ccccc1N1C(=O)N(C(C)=O)C2C1Nc1ccccc1N2C` (centres undefined) is 10.5 µM; for `Cc1cc2ncn(/N=C/c3ccc([N+](=O)[O-])o3)c2cc1C` it is 21.9 µM.
For the molecule `O=C(COC(=O)c1ccc[nH]c1=O)Nc1ccc(N2CCCCC2)cc1`, the half-maximal activity concentration (AC50) is 1.03 µM.
For the molecule `Cc1cccc2sc(N(CCCN(C)C)C(=O)c3nc4ccccc4s3)nc12`, the concentration at half-maximal activity (AC50) is 10.9 µM.
The figure for `O=C(NC(=S)NCc1ccccc1)c1ccccc1` is 22.1 µM; for `O=C(Nc1nc(-c2ccccn2)cs1)c1ccccc1-n1cnnn1` it is 6.96 µM.
The figure for `CC1CC(C)C[N+](=C2C=C(N3CCCC3)CC(C)(C)C2)C1` (centres undefined) is 2.24 µM; for `O=C(Nc1ccc(N2CCCC2)c(Cl)c1)c1ccc([N+](=O)[O-])o1` it is 11.1 µM; for `CCCCCCN1C=CC(=C2C(=O)c3ccccc3C2=O)C=C1` it is 3.86 µM.
The figure for `CCCCN1C=CC(=C2C(=O)c3ccccc3C2=O)C=C1` is 0.921 µM; for `CC(C)(C)C(=O)/C(=C/c1ccncc1)n1cncn1` it is 6.63 µM.
As to `O=C(Nc1ccc(N2CCN(C(=O)c3ccccc3)CC2)cc1)c1ccc([N+](=O)[O-])o1`, the AC50 was 17.9 µM.
The figure for `O=C(Nc1ccc(OC(F)(F)F)cc1)c1[nH]ncc1[N+](=O)[O-]` is 0.601 µM; for `COC(=O)C1=C(C)N(Cc2ccccc2)C(=NCC(C)C)N[C@H]1c1cccc(C(F)(F)F)c1` it is 15 µM.
To `C#CCCc1ccccc1/C=[N+](/C)[O-]` belongs 9.4 µM; to `Cc1cc(C(=O)Nc2cccc(C(=O)O)c2)oc1C`, 4.35 µM; to `CC1CCC(C(C)C)C(OC(=O)C[n+]2cc(-c3ccc(Cl)cc3)n3c2CCCCC3)C1` (centres undefined), 6.97 µM.
The figure for `CC(C)(C)c1ccc(-c2cn(-c3ccc(Br)cc3)c3[n+]2CCCS3)cc1` is 3.2 µM; for `COc1ccc(N/N=C/c2c(C(=O)O)ccc3ccccc23)cc1` it is 5.11 µM.
As to `CN(CCC#N)C(=O)COC(=O)c1ccccc1C(=O)c1ccc(Cl)c([N+](=O)[O-])c1`, the AC50 is 10.9 µM.
Take `Cc1cccc(N2C(=O)NC(=O)/C(=C\C=C\c3ccco3)C2=O)c1`: the concentration at half-maximal activity (AC50) was 5.75 µM.
To `Cc1[nH]nc2nc(SCC(=O)NCCC3=CCCCC3)n(-c3ccc(Br)cc3)c(=N)c12` belongs 2.46 µM.
To `CC(C)c1ccc(N2C(=O)NC(=O)/C(=C/C=C/c3ccco3)C2=O)cc1` belongs 5.89 µM; to `O=C(CCl)Nc1ccc(Sc2ccc(NC(=O)CCl)cc2)cc1`, 5.98 µM; to `CCCC(=O)NC(c1ccc(OC)c(OC)c1)c1cc(Cl)c2cccnc2c1O` (centres undefined), 9.06 µM.
Regarding `CC1(C)Cc2c(sc(NC(=O)c3ccc4ncsc4c3)c2C(N)=O)C(C)(C)N1`, the AC50 is 10.1 µM.
The figure for `Cc1cc(C(=O)N/N=C/c2ccc([N+](=O)[O-])o2)c(C)o1` is 4.79 µM; for `O=C(NCc1ccccc1)C(=O)Nc1cccc(C(=O)O)c1` it is 4.85 µM; for `COc1cccc(/C=N/Nc2ncnc3c2ncn3Cc2ccccc2)c1O` it is 4.6 µM.
On to `CCOc1cc(NC(=O)CCl)c(OCC)cc1NC(=O)CCl`, for which the AC50 was 5.5 µM.
On to `CC(C)c1ccc(/C=N/Nc2ccc(C(=O)O)cc2)cc1`, for which the AC50 is 3.53 µM.
As to `O=C(Cn1ncc(Cl)c(Cl)c1=O)N1CCc2ccccc21`, the AC50 was 6.1 µM.
To `CC(C)(C)C(=O)Cn1ncc(Cl)c(Cl)c1=O` belongs 10.4 µM; to `Cc1ccc2c(c1)COc1c3ccc(C(=O)O)cc3nn1-2`, 2.23 µM.
To `Cc1cc(C=C2C(=O)c3ccccc3C2=O)c(C)n1-c1ccccc1` belongs 3.78 µM.
The figure for `CCOc1ccc(NC(=O)Nc2cccc(C(=O)O)c2)cc1` is 1.53 µM; for `O=C(Nc1ccc(Nc2ccncc2)cc1)c1ccc([N+](=O)[O-])cc1` it is 7.22 µM; for `Cc1cc(NC(=O)c2cncc(Br)c2)ccc1NC(=O)c1cc2ccccc2o1` it is 10.4 µM.
In the case of `CCN(CC)c1ccc(/C=N/NC(=O)c2cccc(S(=O)(=O)N3CCOCC3)c2)c(O)c1`, the AC50 was 1.52 µM.
As to `Cc1cc(C)c[n+](C2=C([O-])c3ccccc3C(=O)/C2=N\S(=O)(=O)c2cccs2)c1`, the AC50 is 2.95 µM.
The figure for `COc1ccccc1N(C(=O)CCl)c1cn(C(C)=O)c2ccccc12` is 8.82 µM.
The figure for `COc1cccc(/C=C2/Sc3ccc(C(=O)NCCN4CCCC4)cc3NC2=O)c1` is 17.9 µM.
The figure for `O=C(c1ccc([N+](=O)[O-])s1)N1CCN(c2ccccn2)CC1` is 12.2 µM.
As for `O=C1NC(=O)N(Cc2ccc(F)cc2)C(=O)/C1=C\C=C\c1ccco1`, the AC50 was 6.63 µM.
For `CCN(CC)S(=O)(=O)c1ccc(NC(=O)c2cccnc2Cl)c(NC(=O)c2cccnc2Cl)c1`, the AC50 is 7.03 µM.
The figure for `CC1CCN(CC2C(=O)O[C@@H]3C[C@@]4(C)CCC[C@H](C)C4=C[C@H]23)CC(C)(C)C1` (some centres undefined) is 16.1 µM; for `COc1ccc(C(=O)N/N=C/c2cc(Br)ccc2O)cc1OC` it is 4.76 µM.
To `O=C(c1ccc(S(=O)(=O)Cc2ccccc2Cl)c([N+](=O)[O-])c1)N1CCN(c2ccccn2)CC1` belongs 9.49 µM.
As to `COc1cc(C(=O)Oc2c(CN3CCOCC3)cc(Cl)c3cccnc23)cc(OC)c1OC`, the concentration at half-maximal activity (AC50) is 7.56 µM.
